Data from ChEMBL document CHEMBL3853354, “Structure-activity relationships of proline modifications around the tetracyclic-indole class of NS5A inhibitors” (Bioorg Med Chem Lett, 2016).

How the values were obtained:
[1] = tested on: Nonstructural protein 5A (Hepatitis C virus), Q5L478 [UNDEFINED MUTATION]; assay: Inhibition of NS5A L31V mutant in HCV genotype 1a assessed as reduction in replicon RNA level after 3 days by cell based RT-PCR method; conditions: Hepatitis C virus subtype 1a
[2] = tested on: T1, Nonstructural protein 5A (Hepatitis C virus), Q5L478 [Y93H]; assay: Inhibition of NS5A Y93H mutant in HCV genotype 1a assessed as reduction in replicon RNA level after 3 days by cell based RT-PCR method; conditions: Hepatitis C virus subtype 1a
T1 sequence (whole entry): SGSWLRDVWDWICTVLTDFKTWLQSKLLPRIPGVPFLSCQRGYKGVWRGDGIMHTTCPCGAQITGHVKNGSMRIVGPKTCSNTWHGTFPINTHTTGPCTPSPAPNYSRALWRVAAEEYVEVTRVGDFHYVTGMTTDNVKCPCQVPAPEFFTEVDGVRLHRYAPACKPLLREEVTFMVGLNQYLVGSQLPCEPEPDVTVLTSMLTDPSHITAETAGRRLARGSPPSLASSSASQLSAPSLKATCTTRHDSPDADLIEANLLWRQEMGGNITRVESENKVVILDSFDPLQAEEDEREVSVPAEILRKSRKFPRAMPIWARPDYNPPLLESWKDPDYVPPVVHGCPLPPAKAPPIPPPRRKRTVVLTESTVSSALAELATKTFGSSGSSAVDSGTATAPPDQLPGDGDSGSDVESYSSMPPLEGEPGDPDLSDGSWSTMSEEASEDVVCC

[3] = tested on: Hepatitis C virus subtype 2b; assay: Inhibition of NS5A in HCV genotype 2b assessed as reduction in replicon RNA level after 3 days by cell based RT-PCR method
[4] = tested on: Hepatitis C virus subtype 3a; assay: Inhibition of NS5A in HCV genotype 3a assessed as reduction in replicon RNA level after 3 days by cell based RT-PCR method
[5] = tested on: Hepatitis C virus subtype 1a; assay: Inhibition of NS5A in HCV genotype 1a assessed as reduction in replicon RNA level after 3 days by cell based RT-PCR method

SMILES	EC90 [1]	EC90 [2]	EC90 [3]	EC90 [4]	EC90 [5]
COC(=O)N[C@H](C(=O)N1C(C)CC[C@H]1c1ncc(-c2ccc3c(c2)OC(c2ccccc2)n2c-3cc3cc(-c4cnc([C@@H]5CCC(C)N5C(=O)[C@@H](NC(=O)OC)C(C)C)[nH]4)ccc32)[nH]1)C(C)C (single isomer, unassigned; diastereomer A)	1.72 nM	64 nM	75 nM	6.14 nM	
COC(=O)N[C@H](C(=O)N1CCC[C@H]1c1ncc(-c2cc(F)c3c(c2)OC(c2ccccc2)n2c-3cc3cc(-c4cnc([C@H]5[C@@H]6[C@H](CN5C(=O)[C@@H](NC(=O)OC)C(C)C)C6(C)C)[nH]4)ccc32)[nH]1)C(C)C (mixture of isomers)	21 nM	> 100 nM	337 nM	> 10 nM	0.02 nM
COC(=O)N[C@H](C(=O)N1C[C@H](F)C[C@H]1c1ncc(-c2cc(F)c3c(c2)OC(c2cccc(OC)c2)n2c-3cc3cc(-c4cnc([C@@H]5C[C@H]6C[C@H]6N5C(=O)[C@@H](NC(=O)OC)C(C)C)[nH]4)ccc32)[nH]1)C(C)C (stereo partly specified)	0.92 nM	5.15 nM	52.2 nM		0.032 nM
COC(=O)N[C@H](C(=O)N1CCC[C@H]1c1ncc(-c2cc(F)c3c(c2)OC(c2cccc(OC)c2)n2c-3cc3cc(-c4cnc([C@@H]5[C@H]6CC[C@H](C6)N5C(=O)[C@@H](NC(=O)OC)C(C)C)[nH]4)ccc32)[nH]1)C(C)C (stereo partly specified)	0.9 nM	26.1 nM	51.8 nM	0.92 nM	0.002 nM
COC(=O)N[C@H](C(=O)N1[C@@H]2CCCC[C@@H]2C[C@H]1c1ncc(-c2cc(F)c3c(c2)OC(c2cccc(OC)c2)n2c-3cc3cc(-c4cnc([C@@H]5C[C@H]6CCCC[C@H]6N5C(=O)[C@@H](NC(=O)OC)C(C)C)[nH]4)ccc32)[nH]1)C(C)C (stereo partly specified)	0.51 nM	37.6 nM	21 nM		0.18 nM
COC(=O)N[C@H](C(=O)N1C[C@H](F)C[C@H]1c1ncc(-c2cc(F)c3c(c2)OC(c2cccc(OC)c2)n2c-3cc3cc(-c4cnc([C@@H]5C[Si](C)(C)CN5C(=O)[C@@H](NC(=O)OC)C(C)C)[nH]4)ccc32)[nH]1)C(C)C (stereo partly specified)	13.6 nM	91.4 nM	391 nM		0.3 nM
COC(=O)N[C@H](C(=O)N1C(C)CC[C@H]1c1ncc(-c2ccc3c(c2)OC(c2ccccc2)n2c-3cc3cc(-c4cnc([C@@H]5CCC(C)N5C(=O)[C@@H](NC(=O)OC)C(C)C)[nH]4)ccc32)[nH]1)C(C)C (single isomer, unassigned; diastereomer B)	5.74 nM	158 nM	129 nM	51.5 nM	
COC(=O)N[C@H](C(=O)N1CCC[C@H]1c1ncc(-c2cc(F)c3c(c2)OC(c2cccc(OC)c2)n2c-3cc3cc(-c4cnc([C@@H]5C[C@@H](F)CN5C(=O)[C@@H](NC(=O)OC)C(C)C)[nH]4)ccc32)[nH]1)C(C)C (stereo partly specified)	0.29 nM	1.81 nM	33.6 nM		0.01 nM
COC(=O)N[C@H](C(=O)N1C[C@@H](OC)C[C@H]1c1ncc(-c2cc(F)c3c(c2)OC(c2cccc(OC)c2)n2c-3cc3cc(-c4cnc([C@@H]5C[C@H](OC)CN5C(=O)[C@@H](NC(=O)OC)C(C)C)[nH]4)ccc32)[nH]1)C(C)C (stereo partly specified)	0.04 nM	8.87 nM	5.74 nM	0.71 nM	0.017 nM
COC(=O)N[C@H](C(=O)N1CCC[C@H]1c1ncc(-c2cc(F)c3c(c2)OC(c2cccc(OC)c2)n2c-3cc3cc(-c4cnc([C@@H]5C[C@H]6C[C@H]6N5C(=O)[C@@H](NC(=O)OC)C(C)C)[nH]4)ccc32)[nH]1)C(C)C (stereo partly specified)	0.084 nM	1.64 nM	19.4 nM	0.15 nM	0.007 nM
COC(=O)N[C@H](C(=O)N1C[C@H](OC(F)F)C[C@H]1c1ncc(-c2cc(F)c3c(c2)OC(c2cccc(OC)c2)n2c-3cc3cc(-c4cnc([C@@H]5C[C@@H](OC(F)F)CN5C(=O)[C@@H](NC(=O)OC)C(C)C)[nH]4)ccc32)[nH]1)C(C)C (stereo partly specified)		5.27 nM	55.6 nM	12.9 nM	0.021 nM
COC(=O)N[C@H](C(=O)N1CCC[C@H]1c1ncc(-c2ccc3c(c2)cc2n3C(c3cccc(OC)c3)Oc3cc(-c4cnc([C@@H]5C[C@@H](F)CN5C(=O)[C@@H](NC(=O)OC)C(C)C)[nH]4)cc(F)c3-2)[nH]1)C(C)C (stereo partly specified)	0.34 nM	0.55 nM	18.8 nM	0.13 nM	< 0.002 nM
COC(=O)N[C@H](C(=O)N1[C@@H]2C[C@@H]2C[C@H]1c1ncc(-c2cc(F)c3c(c2)OC(c2cccc(OC)c2)n2c-3cc3cc(-c4cnc([C@@H]5C[C@H]6C[C@H]6N5C(=O)[C@@H](NC(=O)OC)C(C)C)[nH]4)ccc32)[nH]1)C(C)C (stereo partly specified)	1.72 nM	0.51 nM	22.5 nM	0.17 nM	0.005 nM
COC(=O)N[C@H](C(=O)N1CCC[C@H]1c1ncc(-c2ccc3c(c2)cc2n3C(c3cccc(OC)c3)Oc3cc(-c4cnc([C@@H]5C[C@H]6C[C@H]6N5C(=O)[C@@H](NC(=O)OC)C(C)C)[nH]4)cc(F)c3-2)[nH]1)C(C)C (stereo partly specified)	0.36 nM	10.9 nM	49.3 nM		0.026 nM
COC(=O)N[C@H](C(=O)N1CC2(C[C@H]1c1ncc(-c3cc(F)c4c(c3)OC(c3cccc(OC)c3)n3c-4cc4cc(-c5cnc([C@@H]6CC7(CN6C(=O)[C@@H](NC(=O)OC)C(C)C)OCCCO7)[nH]5)ccc43)[nH]1)OCCCO2)C(C)C (mixture of isomers)	0.2 nM	0.44 nM	114 nM	15 nM	0.018 nM
COC(=O)N[C@H](C(=O)N1C[C@H](F)C[C@H]1c1ncc(-c2cc(F)c3c(c2)OC(c2cccc(OC)c2)n2c-3cc3cc(-c4cnc([C@@H]5C[C@@H](F)CN5C(=O)[C@@H](NC(=O)OC)C(C)C)[nH]4)ccc32)[nH]1)C(C)C (stereo partly specified)	1.59 nM	0.065 nM	39 nM		0.006 nM
COC(=O)N[C@H](C(=O)N1CC2(CC2)C[C@H]1c1ncc(-c2cc(F)c3c(c2)OC(c2cccc(OC)c2)n2c-3cc3cc(-c4cnc([C@@H]5CC6(CC6)CN5C(=O)[C@@H](NC(=O)OC)C(C)C)[nH]4)ccc32)[nH]1)C(C)C (stereo partly specified)	0.05 nM	23.7 nM	38.8 nM	0.16 nM	0.011 nM
COC(=O)N[C@H](C(=O)N1CC[C@H](OC)[C@H]1c1ncc(-c2cc(F)c3c(c2)OC(c2cccc(OC)c2)n2c-3cc3cc(-c4cnc([C@@H]5[C@@H](OC)CCN5C(=O)[C@@H](NC(=O)OC)C(C)C)[nH]4)ccc32)[nH]1)C(C)C (stereo partly specified)	24.5 nM	3.86 nM	322 nM	30 nM	2.67 nM
COC(=O)N[C@H](C(=O)N1C[C@H](OC)C[C@H]1c1ncc(-c2cc(F)c3c(c2)OC(c2cccc(OC)c2)n2c-3cc3cc(-c4cnc([C@@H]5C[C@@H](OC)CN5C(=O)[C@@H](NC(=O)OC)C(C)C)[nH]4)ccc32)[nH]1)C(C)C (stereo partly specified)	0.19 nM	0.79 nM	90.7 nM	5.52 nM	0.015 nM
COC(=O)N[C@H](C(=O)N1[C@@H]2CC(F)(F)[C@@H]2C[C@H]1c1ncc(-c2cc(F)c3c(c2)OC(c2cccc(OC)c2)n2c-3cc3cc(-c4cnc([C@@H]5C[C@@H]6[C@@H](CC6(F)F)N5C(=O)[C@@H](NC(=O)OC)C(C)C)[nH]4)ccc32)[nH]1)C(C)C (stereo partly specified)	0.078 nM	52.6 nM	58 nM	0.29 nM	0.017 nM
